Experimental data as given in PubChem BioAssay (NCI).
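Five concentrations, 48 hours, 96-well plates. The concentration for full growth arrest is given as TGI.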

Assays:
Test in all cases: NCI tumour cell line growth inhibition, 48 h
786-0 renal = tested on: 786-0 renal
A498 renal = tested on: A498 renal
A549 NSCLC = tested on: A549 NSCLC
ACHN renal = tested on: ACHN renal
CCRF-CEM leukemia = tested on: CCRF-CEM leukemia
COLO 205 colon = tested on: COLO 205 colon
EKVX NSCLC = tested on: EKVX NSCLC
HCC-2998 colon = tested on: HCC-2998 colon
HCT-116 colon = tested on: HCT-116 colon
HCT-15 colon = tested on: HCT-15 colon
HL-60(TB) leukemia = tested on: HL-60(TB) leukemia
HOP-62 NSCLC = tested on: HOP-62 NSCLC
HOP-92 NSCLC = tested on: HOP-92 NSCLC
HS 578T breast = tested on: HS 578T breast
HT29 colon = tested on: HT29 colon
IGROV1 ovarian = tested on: IGROV1 ovarian
K-562 leukemia = tested on: K-562 leukemia
KM12 colon = tested on: KM12 colon
LOX IMVI melanoma = tested on: LOX IMVI melanoma
M14 melanoma = tested on: M14 melanoma
MALME-3M melanoma = tested on: MALME-3M melanoma
MCF7 breast = tested on: MCF7 breast
MDA-MB-231 breast = tested on: MDA-MB-231 breast
MDA-MB-435 = tested on: MDA-MB-435
MDA-N = tested on: MDA-N
MOLT-4 leukemia = tested on: MOLT-4 leukemia
NCI-H226 lung = tested on: NCI-H226 lung
NCI-H23 lung = tested on: NCI-H23 lung
NCI-H522 lung = tested on: NCI-H522 lung
NCI/ADR-RES ovarian = tested on: NCI/ADR-RES ovarian
OVCAR-3 ovarian = tested on: OVCAR-3 ovarian
OVCAR-4 ovarian = tested on: OVCAR-4 ovarian
OVCAR-5 ovarian = tested on: OVCAR-5 ovarian
OVCAR-8 ovarian = tested on: OVCAR-8 ovarian
PC-3 prostate = tested on: PC-3 prostate
RPMI-8226 leukemia = tested on: RPMI-8226 leukemia
RXF 393 renal = tested on: RXF 393 renal
SF-295 CNS = tested on: SF-295 CNS
SF-539 CNS = tested on: SF-539 CNS
SK-MEL-2 melanoma = tested on: SK-MEL-2 melanoma
SK-MEL-5 melanoma = tested on: SK-MEL-5 melanoma
SK-OV-3 ovarian = tested on: SK-OV-3 ovarian
SN12C renal = tested on: SN12C renal
SR leukemia = tested on: SR leukemia
T-47D breast = tested on: T-47D breast
TK-10 renal = tested on: TK-10 renal
U251 CNS = tested on: U251 CNS
UACC-257 melanoma = tested on: UACC-257 melanoma
UACC-62 melanoma = tested on: UACC-62 melanoma
UO-31 renal = tested on: UO-31 renal
BT-549 breast = tested on: BT-549 breast
CAKI-1 renal = tested on: CAKI-1 renal
DU-145 prostate = tested on: DU-145 prostate
NCI-H460 lung = tested on: NCI-H460 lung
SF-268 CNS = tested on: SF-268 CNS
SK-MEL-28 melanoma = tested on: SK-MEL-28 melanoma
SNB-19 CNS = tested on: SNB-19 CNS
SW-620 colon = tested on: SW-620 colon

With CCc1c2c(cc3c1CC1(C3)Cc3cc4c(c(C(=O)OC)c3C1)CCCC4)CCCC2 (centres undefined) the TGI (786-0 renal) was > 100 µM, the TGI (A498 renal) was > 100 µM and the TGI (A549 NSCLC) was > 100 µM. For the same compound, the TGI (ACHN renal) was > 100 µM, the TGI (CCRF-CEM leukemia) was > 100 µM and the TGI (COLO 205 colon) was > 100 µM. For the same compound, the TGI (EKVX NSCLC) was 83.9 µM, the TGI (HCC-2998 colon) was > 100 µM and the TGI (HCT-116 colon) was 65.1 µM. The TGI (HCT-15 colon) was > 100 µM, the TGI (HL-60(TB) leukemia) was > 100 µM and the TGI (HOP-62 NSCLC) was > 100 µM. For the same compound, the TGI (HOP-92 NSCLC) was > 100 µM, the TGI (HS 578T breast) was 46.6 µM and the TGI (HT29 colon) was > 100 µM. For the same compound, the TGI (IGROV1 ovarian) was > 100 µM, the TGI (K-562 leukemia) was > 100 µM and the TGI (KM12 colon) was > 100 µM. The TGI (LOX IMVI melanoma) was > 100 µM, the TGI (M14 melanoma) was > 100 µM and the TGI (MALME-3M melanoma) was > 100 µM. The TGI (MCF7 breast) was > 100 µM, the TGI (MDA-MB-231 breast) was > 100 µM and the TGI (MDA-MB-435) was > 100 µM. The TGI (MDA-N) was > 100 µM, the TGI (MOLT-4 leukemia) was > 100 µM and the TGI (NCI-H226 lung) was > 100 µM. The TGI (NCI-H23 lung) was > 100 µM, the TGI (NCI-H522 lung) was > 100 µM and the TGI (NCI/ADR-RES ovarian) was > 100 µM. The TGI (OVCAR-3 ovarian) was > 100 µM, the TGI (OVCAR-4 ovarian) was > 100 µM and the TGI (OVCAR-5 ovarian) was > 100 µM. For the same compound, the TGI (OVCAR-8 ovarian) was > 100 µM, the TGI (PC-3 prostate) was > 100 µM and the TGI (RPMI-8226 leukemia) was > 100 µM. For the same compound, the TGI (RXF 393 renal) was > 100 µM, the TGI (SF-295 CNS) was > 100 µM and the TGI (SF-539 CNS) was > 100 µM. For the same compound, the TGI (SK-MEL-2 melanoma) was > 100 µM, the TGI (SK-MEL-5 melanoma) was > 100 µM and the TGI (SK-OV-3 ovarian) was > 100 µM. For the same compound, the TGI (SN12C renal) was > 100 µM, the TGI (SR leukemia) was > 100 µM and the TGI (T-47D breast) was > 100 µM. The TGI (TK-10 renal) was > 100 µM, the TGI (U251 CNS) was > 100 µM and the TGI (UACC-257 melanoma) was > 100 µM. For the same compound, the TGI (UACC-62 melanoma) was 35.1 µM and the TGI (UO-31 renal) was > 100 µM.
In the case of O=C1CSC(=S)N1c1ccco1, the TGI (786-0 renal) is reported as 61 µM, the TGI (A498 renal) is reported as > 100 µM and the TGI (A549 NSCLC) is reported as > 100 µM. For the same compound, the TGI (ACHN renal) was > 100 µM, the TGI (BT-549 breast) was 50.4 µM and the TGI (CAKI-1 renal) was > 100 µM. For the same compound, the TGI (CCRF-CEM leukemia) was > 100 µM, the TGI (COLO 205 colon) was > 100 µM and the TGI (DU-145 prostate) was > 100 µM. For the same compound, the TGI (EKVX NSCLC) was > 100 µM, the TGI (HCT-116 colon) was > 100 µM and the TGI (HCT-15 colon) was 50.9 µM. For the same compound, the TGI (HL-60(TB) leukemia) was > 100 µM, the TGI (HOP-62 NSCLC) was > 100 µM and the TGI (HOP-92 NSCLC) was > 100 µM. For the same compound, the TGI (HS 578T breast) was > 100 µM, the TGI (HT29 colon) was > 100 µM and the TGI (IGROV1 ovarian) was > 100 µM. The TGI (K-562 leukemia) was > 100 µM, the TGI (KM12 colon) was 52.6 µM and the TGI (LOX IMVI melanoma) was > 100 µM. For the same compound, the TGI (M14 melanoma) was > 100 µM, the TGI (MALME-3M melanoma) was > 100 µM and the TGI (MCF7 breast) was > 100 µM. The TGI (MDA-MB-231 breast) was 92.7 µM, the TGI (MDA-MB-435) was 75.6 µM and the TGI (MDA-N) was 45.4 µM. The TGI (MOLT-4 leukemia) was > 100 µM, the TGI (NCI-H226 lung) was > 100 µM and the TGI (NCI-H23 lung) was > 100 µM. The TGI (NCI-H460 lung) was > 100 µM, the TGI (NCI-H522 lung) was 64.1 µM and the TGI (NCI/ADR-RES ovarian) was > 100 µM. For the same compound, the TGI (OVCAR-3 ovarian) was > 100 µM, the TGI (OVCAR-4 ovarian) was > 100 µM and the TGI (OVCAR-5 ovarian) was > 100 µM. The TGI (OVCAR-8 ovarian) was > 100 µM, the TGI (PC-3 prostate) was > 100 µM and the TGI (RPMI-8226 leukemia) was > 100 µM. The TGI (RXF 393 renal) was > 100 µM, the TGI (SF-268 CNS) was > 100 µM and the TGI (SF-295 CNS) was > 100 µM. The TGI (SF-539 CNS) was > 100 µM, the TGI (SK-MEL-2 melanoma) was > 100 µM and the TGI (SK-MEL-28 melanoma) was > 100 µM. The TGI (SK-MEL-5 melanoma) was > 100 µM, the TGI (SK-OV-3 ovarian) was > 100 µM and the TGI (SN12C renal) was > 100 µM. The TGI (SNB-19 CNS) was > 100 µM, the TGI (SR leukemia) was > 100 µM and the TGI (SW-620 colon) was > 100 µM. The TGI (TK-10 renal) was > 100 µM, the TGI (U251 CNS) was > 100 µM and the TGI (UACC-257 melanoma) was > 100 µM.
